According to PMC12024234, “Antioxidant, Anti-Inflammatory, and Oral Bioavailability of Novel Sulfonamide Derivatives of Gallic Acid” (Antioxidants, 2025):
Several values for one entry are separate records, joined by “and”; a condition that tells them apart may be missing. Equal entries are not always repeated. Entries after “also recorded” stand apart in the source; their conditions may differ.

Experiments:
[1] = system: intracellular reactive oxygen species (ROS) levels in HIEC-6 cells; assay: DCFDA / H2DCFDA ROS assay in HIEC-6; format: cell-based, Human; conditions: HIEC-6, 0.2–50 µM
Method: The antioxidant DCFDA assay was conducted in HIEC-6 according to the protocol provided by the manufacturer Abcam (ab11385) and as mentioned by. Cells were seeded at a cell density of 2.5 × 10^4 cells/well in a clear bottom black 96-well microplate and allowed to adhere overnight at 37 °C in a CO2 incubator. Cells were washed and incubated in 100 µL of the diluted staining DCFDA solution, prepared by diluting 20 mM DCFDA in PBS, for 45 min at 37 °C in the dark Then, the DCFDA solution was removed and GA, 3,4,5-THBS, or 3,4,5-TMBS was added to the cells at different concentrations, in addition to doxorubicin, used as a positive control. Unstained cells were designated as blank. Fluorescence was recorded at Ex/Em = 485/535 nm.
The antioxidant activity of GA, 3,4,5-THBS, and 3,4,5-TMBS was assessed in HIEC-6 cells using the fluorescent probe 2′,7′-dichlorodihydrofluorescein diacetate (H2DCFDA). This assay quantifies the oxidation of H2DCFDA to 2′,7′-dichlorofluorescein (DCF), which serves as a marker for intracellular reactive oxygen species (ROS) levels. Cells were exposed to compound concentrations ranging from 0.2 to 50 µM, and the resulting fluorescence intensities were compared to a control group treated with H2DCFDA alone.

COX-2 = target: T1, COX-2 (Homo sapiens, UniProt P35354); assay: Cyclooxygenase (COX-2) activity assay in HIEC-6 cell lysate; format: biochemical
T1 construct: endogenous in cells; host or cells: HIEC-6 cell lysate
T1 sequence (P35354 18-604): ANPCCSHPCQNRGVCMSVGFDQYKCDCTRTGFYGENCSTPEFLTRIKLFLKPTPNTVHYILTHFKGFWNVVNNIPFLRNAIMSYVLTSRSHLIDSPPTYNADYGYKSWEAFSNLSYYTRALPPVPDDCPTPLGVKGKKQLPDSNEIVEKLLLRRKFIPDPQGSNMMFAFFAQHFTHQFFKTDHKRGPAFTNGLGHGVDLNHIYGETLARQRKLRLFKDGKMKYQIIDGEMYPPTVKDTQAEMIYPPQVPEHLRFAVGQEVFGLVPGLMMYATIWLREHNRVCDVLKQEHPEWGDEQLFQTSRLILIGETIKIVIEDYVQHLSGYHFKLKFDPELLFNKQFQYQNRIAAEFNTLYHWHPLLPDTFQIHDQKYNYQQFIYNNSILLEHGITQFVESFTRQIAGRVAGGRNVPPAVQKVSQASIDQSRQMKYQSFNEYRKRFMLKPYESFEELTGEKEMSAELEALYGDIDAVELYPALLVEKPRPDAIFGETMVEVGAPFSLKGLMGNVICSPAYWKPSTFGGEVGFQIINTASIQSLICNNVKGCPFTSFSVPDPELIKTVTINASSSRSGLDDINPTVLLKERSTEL
Method: Cyclooxygenase (COX-2) activity assay was performed in HIEC-6 cells according to the manufacturer’s instructions (ab204699). Resorufin standards (0–20 pmol/well) were used to generate a calibration curve for quantifying sample concentrations. HIEC-6 cells were centrifuged at 500× g for 3 min and washed with PBS. The cell pellet was lysed in an ice-cold lysis buffer containing 10% Triton X-100 and a protease inhibitor cocktail in PBS for 5 min. The lysate was then centrifuged at 12,000× g for 3 min at 4 °C, and the supernatant was collected and kept on ice. Protein concentration in the supernatant was determined using a Bradford assay, with a bovine serum albumin standard curve (0–2000 µg/mL). […] This mixture was added to a 96-well plate, and the reaction was initiated by adding arachidonic acid (COX-2 substrate) dissolved in NaOH solution. The enzymatic reaction produced fluorescent resorufin dye, which was measured at excitation/emission wavelengths of λEx/Em = 535/587 nm.

[2] = target: Bovine Serum Albumin (BSA) (Bos taurus, UniProt P02769); assay: Protein denaturation assay; format: biochemical; conditions: at 100 nM and higher concentrations (range 1–1000 nM)
Chain of Bovine Serum Albumin (BSA) (P02769 25-607): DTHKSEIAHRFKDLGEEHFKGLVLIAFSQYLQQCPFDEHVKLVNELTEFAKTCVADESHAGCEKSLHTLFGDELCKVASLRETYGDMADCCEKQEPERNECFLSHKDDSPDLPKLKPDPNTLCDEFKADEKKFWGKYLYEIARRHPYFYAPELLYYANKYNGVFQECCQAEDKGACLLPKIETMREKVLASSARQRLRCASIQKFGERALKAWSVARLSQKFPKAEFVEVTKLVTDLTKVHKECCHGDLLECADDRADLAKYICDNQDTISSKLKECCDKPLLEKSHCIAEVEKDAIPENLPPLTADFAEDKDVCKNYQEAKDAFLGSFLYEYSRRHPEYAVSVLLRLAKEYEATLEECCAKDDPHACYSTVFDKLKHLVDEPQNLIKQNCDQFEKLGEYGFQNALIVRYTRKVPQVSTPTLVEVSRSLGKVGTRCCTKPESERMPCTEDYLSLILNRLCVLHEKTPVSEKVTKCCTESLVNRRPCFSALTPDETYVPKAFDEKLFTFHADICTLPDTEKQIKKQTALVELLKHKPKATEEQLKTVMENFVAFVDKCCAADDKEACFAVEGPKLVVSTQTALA
Method: The anti-inflammatory potential of the compounds was evaluated using a protein denaturation assay, a well-established method to assess the capacity of test substances to inhibit protein denaturation, a key marker of inflammation. […] After heating, the samples were allowed to cool to room temperature, and the turbidity of the solutions, indicative of protein precipitation, was measured spectrophotometrically at 660 nm. A reduction in turbidity corresponds to the inhibition of protein denaturation, reflecting the anti-inflammatory activity of the tested compounds.

CYP2D6 [3] = target: T2, CYP2D6 (Homo sapiens, UniProt P10635); assay: Metabolism by cytochrome P450 2D6 (CypExpress), HPLC; format: in vitro ADME
T2 construct: purchased Sigma Aldrich C4982
T2 sequence (P10635 whole entry): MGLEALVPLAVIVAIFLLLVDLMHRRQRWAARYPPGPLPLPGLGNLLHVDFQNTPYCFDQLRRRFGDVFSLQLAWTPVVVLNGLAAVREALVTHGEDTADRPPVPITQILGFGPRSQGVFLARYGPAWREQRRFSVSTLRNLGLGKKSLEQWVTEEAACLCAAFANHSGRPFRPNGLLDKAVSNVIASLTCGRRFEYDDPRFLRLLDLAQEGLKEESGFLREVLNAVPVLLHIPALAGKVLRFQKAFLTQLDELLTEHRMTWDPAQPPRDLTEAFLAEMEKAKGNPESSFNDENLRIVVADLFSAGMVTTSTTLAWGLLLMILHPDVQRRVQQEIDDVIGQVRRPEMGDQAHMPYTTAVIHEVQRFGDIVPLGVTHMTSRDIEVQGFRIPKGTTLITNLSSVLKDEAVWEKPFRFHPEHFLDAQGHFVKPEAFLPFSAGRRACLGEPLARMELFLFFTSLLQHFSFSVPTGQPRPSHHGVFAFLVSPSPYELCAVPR

CYP2D6 [4] = target: T2, CYP2D6; assay: as above; format: in vitro ADME; conditions: 4 h
Method: The enzymatic activity of cytochrome P450 2D6 (CYP2D6) was evaluated following the CypExpress protocol (C4982, Sigma Aldrich, Darmstadt, Germany). The reaction buffer consisted of 5 mM glucose-6-phosphate (G6P), 2 mM nicotinamide adenine dinucleotide phosphate (NADP+), and 3,4,5-TMBS prepared in PBS at concentrations of 1000 and 1500 µM. Diltiazem was used as a positive control. The reaction was initiated by adding CYP2D6, and the mixture was vortexed for 5 min. The samples were then incubated at 37 °C with gentle shaking at 100 rpm for 4 h. The reaction was terminated by adding acetonitrile, followed by centrifugation at 800 rpm for 10 min. The supernatant was collected and analyzed using HPLC.

[5] = DPPH assay on supernatant after CYP2D6 metabolism
Method: The antioxidant properties of the compounds under study were examined using the 2,2-Diphenyl-1-picrylhydrazyl (DPPH) assay, following a well-established protocol. A DPPH solution was prepared at a concentration of 0.1 mM in methanol. […] To ensure proper reaction, the mixtures were kept in the dark and incubated at room temperature for 30 min. After incubation, the absorbance of each sample was measured at 517 nm using a UV-VIS spectrophotometer. Gallic acid was used as the reference standard, and methanol served as the blank control.
To further assess the scavenging activity of 3,4,5-TMBS metabolites, an antioxidant assay was conducted after 3 and 4 h following the metabolism. After both 3 h and 4 h reaction periods, the enzyme was separated, and the resulting supernatant was utilized for the DPPH assay. Findings regarding the antioxidant activity of 3,4,5-TMBS, post-metabolism, at these time points, in comparison to GA and 3,4,5-THBS at the same concentration, are illustrated in Figure 9.

| Metabolism by CYP2D6 (concentration) (CYP2D6 [3]; 1000 µM, 1 h) [µM] | Metabolism by CYP2D6 (concentration) (CYP2D6 [3]; 1000 µM, 3 h) [µM] | Metabolism by CYP2D6 (concentration) (CYP2D6 [3]; 1500 µM, 1 h) [µM] | Metabolism by CYP2D6 (concentration) (CYP2D6 [3]; 1500 µM, 3 h) [µM] | Percentage metabolized by CYP2D6 (CYP2D6 [3]; 1500 µM, one-hour time point) | Metabolism by CYP2D6 (concentration) (CYP2D6 [4]; 1000 µM) [µM] | Metabolism by CYP2D6 (concentration) (CYP2D6 [4]; 1500 µM) [µM] | DPPH scavenging activity after CYP2D6 metabolism ([5]; 1000 µM, after four hours) [%] | DPPH scavenging activity after CYP2D6 metabolism ([5]; 1000 µM, after three hours) [%] | DPPH scavenging activity after CYP2D6 metabolism ([5]; 2000 µM, after three and four hours) | SMILES | ROS levels (fluorescence intensity) relative to control [1] | COX-2 inhibition compared to ibuprofen (COX-2; 1 µM) | COX-2 inhibition compared to ibuprofen (COX-2; 50 µM) | Anti-inflammatory activity (inhibition of protein denaturation) compared to ibuprofen [2] |
| --- | --- | --- | --- | --- | --- | --- | --- | --- | --- | --- | --- | --- | --- | --- |
|  |  |  |  |  |  |  |  |  |  | NS(=O)(=O)c1cc(O)c(O)c(O)c1 [3,4,5-THBS, 3,4,5-trihydroxybenzenesulfonamide] | potent antioxidant activity | inhibition levels similar to ibuprofen | inhibition levels similar to ibuprofen |  |
| 754 ± 35.5 | 860.62 ± 0.71 | 984 ± 161 | 1241 ± 12.2 | 65% and 65.5% | 833 ± 54.9 | 1248 ± 5.02 | 45 | 35 | up to 61% | COc1cc(S(N)(=O)=O)cc(OC)c1OC [3,4,5-TMBS, 3,4,5-trimethoxybenzenesulfonamide] | potent antioxidant activity | no significant difference in COX-2 inhibition relative to ibuprofen | high COX-2 inhibition; also recorded: highly significant increase in inhibition | significant increase in anti-inflammatory activity |
